The series can be described thus: Differential scanning calorimetry. The format is physicochemical. The settings on record: 5 mg/ml in PBS, scan rate 1° C./min. How it is done: Samples were placed in a vacuum for 30 min prior to measurement. A scan rate of 1° C./min was used for all samples. PBS was used as the reference and one scan cycle of PBS was used as the baseline. For each lipid, three cooling and heating scans were performed and the results averaged to determine the phase transition temperature of the lipids.
(In DSC, transitions show as peaks or steps in heat flow.)

Structures are written as SMILES.

In turn, `CCCCCCCCCCCCCC(=O)OC[C@H](COP(=O)([O-])OCC[N+](C)(C)C)OC(=O)CCCCCCCCCCCCC` [DMPC] displayed a transition temperature of 24 °C.

(Values after patent US9072774B2, “Porphyrin nanovesicles” (UNIVERSITY HEALTH NETWORK, priority 2009, dated 2015).)
